Test results from patent US8497371B2, “Pipemidic acid derivative autotaxin inhibitors” (University of Memphis Research Foundation, priority 2009, dated 2013).
Entries after “also recorded” stand apart in the source; their conditions may differ.

Key:
ATX [1] = molecular target: T1, ATX (Homo sapiens, UniProt Q13822); assay: biochemical
human NPP6 = molecular target: T2, human NPP6 (Homo sapiens, UniProt Q6UWR7); assay: Determination of NPP6 inhibition (pNPPC substrate); assay type: biochemical; conditions: 10 μM inhibitor
T2 construct: transfected with human NPP6ex^51 or human NPP7ex expression plasmids; made in house; host or cells: HEK293 cells, transient transfection, pcDNA3.1(+); unconcentrated conditioned medium (CM)
T2 sequence (Q6UWR7 23-419 limits assumed): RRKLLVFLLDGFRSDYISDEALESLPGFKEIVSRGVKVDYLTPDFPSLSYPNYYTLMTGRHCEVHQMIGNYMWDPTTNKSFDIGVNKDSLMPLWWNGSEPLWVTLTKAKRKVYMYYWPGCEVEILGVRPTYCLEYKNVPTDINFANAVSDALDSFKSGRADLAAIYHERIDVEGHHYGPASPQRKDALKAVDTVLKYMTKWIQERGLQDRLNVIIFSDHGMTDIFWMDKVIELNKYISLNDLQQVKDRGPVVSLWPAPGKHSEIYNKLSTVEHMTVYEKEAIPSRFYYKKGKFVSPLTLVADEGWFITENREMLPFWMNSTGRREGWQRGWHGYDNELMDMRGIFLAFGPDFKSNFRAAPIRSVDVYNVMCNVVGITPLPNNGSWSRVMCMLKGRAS
Description: (§1) Inhibitor selectivity was assayed using p-nitrophenylphosphoryl-choline (pNPPC) (Sigma-Aldrich, St. Louis, Mo.) as substrate for NPP6 and NPP7. The final volume (60 μL) included 20 μL (CM, NPP6 or CCM, NPP7, 20 μL inhibitor (10 μM including 1% DMSO) in assay buffer, and 20 μL pNPPC (10 mM, NPP6 or 1 NPP7) in assay buffer. NPP6 assay buffer contained 500 mM NaCl, 0.05% Triton X-100, 100 mM Tris-HCl (pH 9.0), whereas NPP7 assay buffer was comprised of 50 mM Tris HCl, pH 8.5, 150 mM NaCl, and 10 mM taurocholic acid. However, unlike the published methods, EDTA was not added to the NPP7 assay buffer. All assays were performed in 96-well, half area plates (Corning Inc., Lowell, Mass.) at 37° C. with data collected at 2 minute intervals using a Synergy2 absorbance plate reader (BioTek, Winooski, Vt.). Results are shown at the one hour time point, when all absorbance changes as a function of time were linear. Readings were normalized to vehicle control after subtraction of absorbance in the absence of CM or CCM. Data are shown as the mean±S.D. of at least three wells. All experiments were repeated twice and representative results are shown.
(§2) Assays were performed with CM or CCM from HEK293 cells transiently transfected with NPP6 and 7 expression plasmids, respectively. HEK293 cells were seeded in Dulbecco's modified Eagle's medium (DMEM) containing 10% fetal bovine serum, 100 U/ml penicillin, 100 μg/ml streptomycin (Hyclone, Logan, Utah), and 2 mM L-glutamine. HEK293 cells were grown overnight at 37° C. under 5% CO2 to 80% confluence. The cells were then transfected with human NPP6ex^51 or human NPP7ex expression plasmids in the pcDNA3.1(+) mammalian vector in the presence of Polyfect Transfection Reagent (Hyclone, Logan, Utah). Six hours after transfection, the culture medium was changed to serum free DMEM containing L-glutamine and cells were incubated for 48 hours. Expressed protein was collected (NPP6 and NPP7) and concentrated ˜10×(NPP7) using 10 kDa molecular weight cutoff filters (Millipore, Beverly, Mass.) in an Amicon pressure cell (Millipore, Beverly, Mass.).

ATX [2] = molecular target: T1, ATX; assay: ATX inhibition assay with FS-3 substrate; assay type: biochemical; set-up: conditioned serum-free medium (CCM) from MDA-MB-435 cells as the source of ATX; endogenous in cells; host or cells: MDA-MB-435 cells (about 10x concentrated serum-free conditioned medium); conditions: for % Response at 10 μM (FS-3): 10 μM compound, FS-3 hydrolysis normalized to vehicle control (low = strong inhibition), mean ± S.D.; for single dose response comparison by aromatic substituent and position: Table 2, same values as % Response at 10 μM; for inhibition at 10 µM: single dose 10 μM, % inhibition, read-out: inhibition of ATX-mediated hydrolysis of FS-3
Description: ATX inhibition was assayed using the substrate FS-3 (Echelon Biosciences, Inc., Salt Lake City, Utah, USA). The FS-3 assay used ˜10 times concentrated conditioned serum-free medium (CCM) from MDA-MB-435 cells as the source of ATX, while CCM comprised one-third of the total volume.
All assays were performed in 96-well plates with data read at 1 minute intervals by a Synergy2 system (BioTek, Winooski, Vt.). […] Results are shown at one hour, at which point all fluorescence and absorbance changes as a function of time were linear. All readings were normalized to vehicle control after subtraction of fluorescence in the absence of CCM. Data are shown as the mean±S.D. of at least three wells. All experiments were repeated at least twice and results are shown.

human NPP7 = molecular target: T3, human NPP7 (Homo sapiens, UniProt Q6UWV6); assay: Determination of NPP7 inhibition (pNPPC substrate); assay type: biochemical; conditions: 10 μM inhibitor
T3 construct: transfected with human NPP6ex^51 or human NPP7ex expression plasmids; made in house; host or cells: HEK293 cells, transient transfection, pcDNA3.1(+); conditioned medium concentrated about 10x (CCM)
T3 sequence (Q6UWV6 22-433 limits assumed): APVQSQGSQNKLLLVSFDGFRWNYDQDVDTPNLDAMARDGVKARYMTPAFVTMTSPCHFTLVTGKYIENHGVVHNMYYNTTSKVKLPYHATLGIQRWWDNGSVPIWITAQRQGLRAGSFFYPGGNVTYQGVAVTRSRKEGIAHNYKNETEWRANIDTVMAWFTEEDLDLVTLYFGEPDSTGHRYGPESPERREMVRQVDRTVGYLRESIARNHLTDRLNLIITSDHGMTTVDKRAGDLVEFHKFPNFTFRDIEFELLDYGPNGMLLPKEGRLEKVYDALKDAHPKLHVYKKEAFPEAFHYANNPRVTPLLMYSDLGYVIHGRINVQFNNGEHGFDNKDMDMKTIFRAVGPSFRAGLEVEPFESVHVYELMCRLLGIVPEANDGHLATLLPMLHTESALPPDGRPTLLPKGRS
Description: as §1, §2

ATX [3] = molecular target: T1, ATX; conditions: for Inhibition Mechanism: FS-3 substrate
[4] = Ki (μM), FS-3 substrate, for mixed mode Ki=IC50 assumed

CCn1cc(C(=O)O)c(=O)c2cnc(N3CCN(C(=S)Nc4ccc(C(F)(F)F)cc4)CC3)nc21 [Compound 31, 2-(4-{[(4-trifluoromethylphenyl)amino]carbonothioyl}-1-piperazinyl)-8-ethyl-5-oxo-5,8-dihydropyrido[2,3-d]pyrimidine-6-carboxylic acid]
Ki (ATX [1]; [4]): 1.4 µM | effect on activity of NPP6 (human NPP6): None of the compounds affected the activity | % Response at 10 μM (FS-3) (ATX [2]): 36.2 ± 0.9% | IC50 (ATX [2]; FS-3 substrate): 1.5 µM | IC50 (ATX [2]; Substrate FS-3 (1 μM)): 1.5 µM | single dose response comparison by aromatic substituent and position (ATX [2]): 36.2 ± 0.9 | inhibition at 10 µM (ATX [2]): ≥ 50% | effect on activity of NPP7 (human NPP7): None of the compounds affected the activity | mechanism of ATX inhibition (ATX [3]): uncompetitive | potency relative to the lead compound (ATX [3]): at least as potent as the lead compound; also recorded: approximately equivalent to the lead | Inhibition Mechanism (ATX [3]): Uncompetitive

CCn1cc(C(=O)O)c(=O)c2cnc(N3CCN(C(=S)Nc4cccc(C)c4)CC3)nc21 [Compound 13, 2-(4-{[(3-methylphenyl)amino]carbonothioyl}-1-piperazinyl)-8-ethyl-5-oxo-5,8-dihydropyrido[2,3-d]pyrimidine-6-carboxylic acid]
Ki (ATX [1]; Ki): 1.7 to 13.5 µM | Ki (ATX [1]; [4]): 13.5 µM | effect on activity of NPP6 (human NPP6): None of the compounds affected the activity | % Response at 10 μM (FS-3) (ATX [2]): 41.9 ± 0.8% | IC50 (ATX [2]; FS-3 substrate): 13.5 ± 1.3 µM | inhibition at 10 µM (ATX [2]): ≥ 50% | effect on activity of NPP7 (human NPP7): None of the compounds affected the activity | mechanism of ATX inhibition (ATX [3]): mixed-mode | potency relative to the lead compound (ATX [3]): as potent as or significantly less potent than the lead | Inhibition Mechanism (ATX [3]): Mixed

CCn1cc(C(=O)O)c(=O)c2cnc(N3CCN(C(=S)Nc4ccc(Cl)cc4)CC3)nc21 [Compound 28, 2-(4-{[(4-chlorophenyl)amino]carbonothioyl}-1-piperazinyl)-8-ethyl-5-oxo-5,8-dihydropyrido[2,3-d]pyrimidine-6-carboxylic acid]
Ki (ATX [1]; Ki): 1.7 to 13.5 µM | Ki (ATX [1]; [4]): 10.7 µM | effect on activity of NPP6 (human NPP6): None of the compounds affected the activity | % Response at 10 μM (FS-3) (ATX [2]): 42.4 ± 0.9% | IC50 (ATX [2]; FS-3 substrate): 10.7 µM | single dose response comparison by aromatic substituent and position (ATX [2]): 42.4 ± 0.9 | inhibition at 10 µM (ATX [2]): ≥ 50% | effect on activity of NPP7 (human NPP7): None of the compounds affected the activity | mechanism of ATX inhibition (ATX [3]): mixed-mode | potency relative to the lead compound (ATX [3]): as potent as or significantly less potent than the lead | Inhibition Mechanism (ATX [3]): Mixed

CCn1cc(C(=O)O)c(=O)c2cnc(N3CCN(C(=S)Nc4cc(C)cc(C)c4)CC3)nc21 [Compound 22, 2-(4-{[(3,5-dimethylphenyl)amino]carbonothioyl}-1-piperazinyl)-8-ethyl-5-oxo-5,8-dihydropyrido[2,3-d]pyrimidine-6-carboxylic acid]
Ki (ATX [1]; Ki): 1.7 to 13.5 µM | Ki (ATX [1]; [4]): 9 µM | effect on activity of NPP6 (human NPP6): None of the compounds affected the activity | % Response at 10 μM (FS-3) (ATX [2]): 30.4 ± 1.3% | IC50 (ATX [2]; FS-3 substrate): 9 µM | inhibition at 10 µM (ATX [2]): ≥ 50% | effect on activity of NPP7 (human NPP7): None of the compounds affected the activity | mechanism of ATX inhibition (ATX [3]): mixed-mode | potency relative to the lead compound (ATX [3]): as potent as or significantly less potent than the lead | Inhibition Mechanism (ATX [3]): Mixed

CCn1cc(C(=O)O)c(=O)c2cnc(N3CCN(C(=S)Nc4cccc(I)c4)CC3)nc21 [Compound 29, 2-(4-{[(3-iodophenyl)amino]carbonothioyl}-1-piperazinyl)-8-ethyl-5-oxo-5,8-dihydropyrido[2,3-d]pyrimidine-6-carboxylic acid]
effect on activity of NPP6 (human NPP6): None of the compounds affected the activity | % Response at 10 μM (FS-3) (ATX [2]): 8.6 ± 0.9% | single dose response comparison by aromatic substituent and position (ATX [2]): 8.6 ± 0.9 | inhibition at 10 µM (ATX [2]): ≥ 50% | effect on activity of NPP7 (human NPP7): None of the compounds affected the activity | mechanism of ATX inhibition (ATX [3]): uncompetitive | Inhibition Mechanism (ATX [3]): Uncompetitive

CCn1cc(C(=O)O)c(=O)c2cnc(N3CCN(C(=S)Nc4ccc(F)cc4)CC3)nc21 [Compound 23, 2-(4-{[(4-fluorophenyl)amino]carbonothioyl}-1-piperazinyl)-8-ethyl-5-oxo-5,8-dihydropyrido[2,3-d]pyrimidine-6-carboxylic acid]
effect on activity of NPP6 (human NPP6): None of the compounds affected the activity | % Response at 10 μM (FS-3) (ATX [2]): 48.9 ± 1.1% | IC50 (ATX [2]; FS-3 substrate): 17.7 µM | single dose response comparison by aromatic substituent and position (ATX [2]): 48.9 ± 1.1 | inhibition at 10 µM (ATX [2]): ≥ 50% | effect on activity of NPP7 (human NPP7): None of the compounds affected the activity

CCn1cc(C(=O)O)c(=O)c2cnc(N3CCN(C(=S)Nc4ccc(I)cc4)CC3)nc21 [Compound 3, 2-(4-{[(4-iodophenyl)amino]carbonothioyl}-1-piperazinyl)-8-ethyl-5-oxo-5,8-dihydropyrido[2,3-d]pyrimidine-6-carboxylic acid]
effect on activity of NPP6 (human NPP6): None of the compounds affected the activity | % Response at 10 μM (FS-3) (ATX [2]): 32.7 ± 1.3% | single dose response comparison by aromatic substituent and position (ATX [2]): 32.7 ± 1.3 | inhibition at 10 µM (ATX [2]): ≥ 50% | effect on activity of NPP7 (human NPP7): None of the compounds affected the activity | mechanism of ATX inhibition (ATX [3]): mixed-mode | Inhibition Mechanism (ATX [3]): Mixed

CCn1cc(C(=O)O)c(=O)c2cnc(N3CCN(C(=S)Nc4ccc(C)cc4)CC3)nc21 [Compound 27, 2-(4-{[(4-methylphenyl)amino]carbonothioyl}-1-piperazinyl)-8-ethyl-5-oxo-5,8-dihydropyrido[2,3-d]pyrimidine-6-carboxylic acid]
effect on activity of NPP6 (human NPP6): None of the compounds affected the activity | % Response at 10 μM (FS-3) (ATX [2]): 49.9 ± 1.5% | IC50 (ATX [2]; FS-3 substrate): 16.1 ± 4 µM | inhibition at 10 µM (ATX [2]): ≥ 50% | effect on activity of NPP7 (human NPP7): None of the compounds affected the activity

CCn1cc(C(=O)O)c(=O)c2cnc(N3CCN(C(=S)Nc4cccc(F)c4)CC3)nc21 [Compound 25, 2-(4-{[(3-fluorophenyl)amino]carbonothioyl}-1-piperazinyl)-8-ethyl-5-oxo-5,8-dihydropyrido[2,3-d]pyrimidine-6-carboxylic acid]
effect on activity of NPP6 (human NPP6): None of the compounds affected the activity | % Response at 10 μM (FS-3) (ATX [2]): 40.5 ± 1.0% | IC50 (ATX [2]; FS-3 substrate): 16.1 ± 4.5 µM | single dose response comparison by aromatic substituent and position (ATX [2]): 40.5 ± 1.0 | inhibition at 10 µM (ATX [2]): ≥ 50% | effect on activity of NPP7 (human NPP7): None of the compounds affected the activity
